These results are taken from patent US9856216B2, “Compounds as TNIK, IKKε and TBK1 inhibitors and pharmaceutical composition comprising same” (GREEN CROSS CORPORATION, priority 2015, dated 2018).

Some results are limits rather than exact numbers.

T1 sequence (Q9UKE5 1-367 limits assumed): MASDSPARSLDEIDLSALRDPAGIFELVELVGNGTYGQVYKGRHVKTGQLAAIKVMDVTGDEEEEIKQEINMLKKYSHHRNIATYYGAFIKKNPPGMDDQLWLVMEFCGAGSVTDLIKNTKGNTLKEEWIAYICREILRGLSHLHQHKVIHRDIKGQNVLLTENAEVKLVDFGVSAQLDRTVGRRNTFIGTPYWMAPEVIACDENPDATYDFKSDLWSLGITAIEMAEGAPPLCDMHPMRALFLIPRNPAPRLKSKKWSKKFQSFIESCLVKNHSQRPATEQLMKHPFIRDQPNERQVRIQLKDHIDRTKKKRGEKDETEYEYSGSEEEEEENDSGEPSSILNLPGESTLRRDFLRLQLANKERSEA

The experiment addresses T1, TNIK (Homo sapiens, UniProt Q9UKE5).
T1 construct: purchased Promega V4158
As to the kind of experiment: ADP-Glo Kinase Assay, inhibition activity on TNIK. The format is biochemical. The note with it: read-out: TNIK. The method, then:
The inhibition activities on TNIK, IKKε and TBK1 were measured by a luminometer, TNIK/IKKε/TBK1 Kinase Enzyme System (Promega, Ca# V4158; Invitrogen, PR8031B, Promega, Ca# V3991) and ADP-Glo Kinase Assay using ADP-Glo™ Kinase Analysis Kit (Promega, Ca# V9101) and a kinase reaction buffer [40 mM Tris(pH 7.5), 20 mM MgCl2, 0.1 mg/mL BSA] in accordance with the manufacturer's protocol.
On the technique in general: In ADP-Glo the light output rises with the ADP produced.
With `Cc1ccc(C(=O)Nc2ccc(-c3ccccc3)c3c2C(=O)NC3)c(C)c1` [Example 105, 2,4-Dimethyl-N-(3-oxo-7-phenylisoindolin-4-yl)benzamide], the IC50 was greater than 20000 nM.
In the case of `COc1ccccc1-c1ccc(N)c2c1C(=O)NC2=O` [Example 272, 4-Amino-7-(2-methoxyphenyl)isoindolin-1,3-dione] it was 10900 nM; in that of `CN1CCN(CCCNc2ccc(C(=O)Nc3ccc(-c4ccccc4)c4c3C(=O)NC4)cc2)CC1` [Example 329, 4-((3-(4-Methylpiperazin-1-yl)propyl)amino)-N-(3-oxo-7-phenylisoindolin-4-yl)benzamide], 440 nM.
In the case of `O=C(Nc1ccc(Nc2cccc(Cl)c2)c2c1C(=O)NC2)c1ccc(NCCCN2CCCCC2)cc1` [Example 458, N-(7-((3-chlorophenyl)amino)-3-oxoisoindolin-4-yl)-4-((3-(piperidin-1-yl)propyl)amino)benzamide] it was 240 nM; in that of `Cc1ccsc1C(=O)Nc1ccc(-c2ccccc2)c2c1C(=O)NC2` [Example 109, 3-Methyl-N-(3-oxo-7-phenylisoindolin-4-yl)thiophene-2-carboxamide], greater than 20000 nM; in that of `COc1ccccc1-c1ccc(NC(=O)c2ccc(NCCN(C)C)cc2)c2c1CNC2=O` [Example 305, 4-((2-(Dimethylamino)ethyl)amino)-N-(7-(2-methoxyphenyl)-3-oxoisoindolin-4-yl)benzamide], 200 nM.
Regarding `Nc1ccc(-c2ccco2)c2c1C(=O)NC2=O` [Example 274, 4-Amino-7-(furan-2-yl)isoindolin-1,3-dione], the IC50 is 3600 nM.
With `Cc1ccc(C(=O)Nc2ccc(-c3ccccc3)c3c2C(=O)NC3)o1` [Example 192, 5-Methyl-N-(3-oxo-7-phenylisoindolin-4-yl)furan-2-carboxamide] the figure was 730 nM; with `O=C1NCc2c(-c3ccccc3)ccc(NS(=O)(=O)c3ccccc3)c21` [Example 249, N-(3-oxo-7-phenylisoindolin-4-yl)benzenesulfonamide], greater than 20000 nM.
In the case of `O=C(Nc1ccc(-c2cccc3ncoc23)c2c1C(=O)NC2)c1ccc(NCCN2CCCCC2)cc1` [Example 342, N-(7-(benzo[d]oxazol-7-yl)-3-oxoisoindolin-4-yl)-4-((2-(piperidin-1-yl)ethyl)amino)benzamide] it was 43 nM.
With `Cc1cccc(Nc2ccc(NC(=O)c3ccc(NCCCN4CCCC4)cc3)c3c2CNC3=O)c1` [Example 451, N-(3-oxo-7-(m-tolylamino)isoindolin-4-yl)-4-((3-(pyrrolidin-1-yl)propyl)amino)benzamide] the figure was 480 nM.
On to `O=C(Nc1ccc(-c2ccccc2)c2c1C(=O)NC2)c1ccncc1` [Example 211, N-(3-oxo-7-phenylisoindolin-4-yl)isonicotinamide], for which the IC50 was found to be 700 nM.
With `COc1cccc(-c2ccc(NC(=O)c3ccccc3)c3c2C(=O)NC3=O)c1OC` [Example 278, N-(7-(2,3-dimethoxyphenyl)-1,3-dioxoisoindolin-4-yl) benzamide] the figure was 410 nM.
In the case of `CNCCN(C)c1ccc(C(=O)Nc2ccc(-c3ccccc3)c3c2C(=O)NC3)cc1` [Example 358, 4-(Methyl(2-(methylamino)ethyl)amino)-N-(3-oxo-7-phenylisoindolin-4-yl)benzamide], the IC50 is 1100 nM.
For `O=C(Nc1ccc(-c2ccccc2)c2c1C(=O)NC2)c1ccc(NCCN2CCCCCC2)cc1` [Example 369, 4-((2-(Azepan-1-yl)ethyl)amino)-N-(3-oxo-7-phenylisoindolin-4-yl)benzamide], the IC50 was 560 nM.
With `COc1ccccc1-c1ccc(NC(=O)c2ccc(NCCCCO)cc2)c2c1CNC2=O` [Example 356, 4-((4-Hydroxybutyl)amino)-N-(7-(2-methoxyphenyl)-3-oxoisoindolin-4-yl)benzamide] the figure was 250 nM; with `COc1cccc(-c2ccc(NC(=O)c3ccco3)c3c2CNC3=O)c1OC` [Example 134, N-(7-(2,3-dimethoxyphenyl)-3-oxoisoindolin-4-yl)furan-2-carboxamide], 54 nM; with `COc1ccccc1-c1ccc(NC(=O)c2ccc(N3CCN(C)CC3)cc2)c2c1CNC2=O` [Example 325, N-(7-(2-methoxyphenyl)-3-oxoisoindolin-4-yl)-4-(4-methylpiperazin-1-yl)benzamide], 370 nM.
With `Cc1csc(C(=O)Nc2ccc(-c3ccccc3)c3c2C(=O)NC3)c1` [Example 110, 4-Methyl-N-(3-oxo-7-phenylisoindolin-4-yl)thiophene-2-carboxamide] the figure was greater than 20000 nM; with `Cc1cc(F)ccc1C(=O)Nc1ccc(-c2ccccc2)c2c1C(=O)NC2` [Example 137, 4-Fluoro-2-methyl-N-(3-oxo-7-phenylisoindolin-4-yl) benzamide], greater than 20000 nM; with `O=C(Nc1ccc(-c2cccc3cc[nH]c23)c2c1C(=O)NC2)c1ccc(F)cc1` [Example 217, N-(7-(1H-indol-7-yl)-3-oxoisoindolin-4-yl)-4-fluorobenzamide], 2950 nM.
In the case of `Cc1cccc(Nc2ccc(NC(=O)c3ccc(NCCCN4CCCC4)cc3)c3c2CNC3=O)c1C` [Example 470, N-(7-((2,3-dimethylphenyl)amino)-3-oxoisoindolin-4-yl)-4-((3-(pyrrolidin-1-yl)propyl)amino)benzamide] it was 470 nM; in that of `O=C(Nc1ccc(-c2cccc(F)c2Cl)c2c1C(=O)NC2)c1ccccc1` [Example 23, N-(7-(2-chloro-3-fluorophenyl)-3-oxoisoindolin-4-yl)benzamide], 8900 nM.
As for `Cc1ccccc1Nc1ccc(NC(=O)c2ccc(NCCN3CCCCC3)cc2)c2c1CNC2=O` [Example 482, N-(3-oxo-7-(o-tolylamino)isoindolin-4-yl)-4-((2-(piperidin-1-yl)ethyl)amino)benzamide], the IC50 was 420 nM.
As to `CSc1ccccc1C(=O)Nc1ccc(-c2ccccc2)c2c1C(=O)NC2` [Example 96, 2-(Methylthio)-N-(3-oxo-7-phenylisoindolin-4-yl)benzamide], the IC50 came out at 7000 nM.
On to `COc1c(F)cccc1-c1ccc(NC(=O)c2ccc(NCCN3CCCC3)cc2)c2c1CNC2=O` [Example 313, N-(7-(3-fluoro-2-methoxyphenyl)-3-oxoisoindolin-4-yl)-4-((2-(pyrrolidin-1-yl)ethyl)amino)benzamide], for which the IC50 turned out to be 450 nM.
`O=C(Nc1ccc(-c2ccc(CN3CCCCC3)s2)c2c1C(=O)NC2)c1ccccc1` [Example 196, N-(3-oxo-7-(5-(piperidin-1-ylmethyl)thiophen-2-yl)isoindolin-4-yl)benzamide]: the IC50 was determined as 17700 nM.
With `O=C(Nc1ccc(-c2ccccc2)c2c1C(=O)NC2)c1ccc(NCCN2CCCC2)cc1` [Example 317, N-(3-oxo-7-phenylisoindolin-4-yl)-4-((2-(pyrrolidin-1-yl)ethyl)amino)benzamide] the figure was 360 nM.
In the case of `Cc1ccc(NC(=O)c2ccccc2)c2c1CNC2=O` [Example 37, N-(7-methyl-3-oxoisoindolin-4-yl)benzamide], the IC50 is 6100 nM.
With `N#Cc1ccc(-c2ccc(NC(=O)c3ccccc3)c3c2CNC3=O)cc1` [Example 207, N-(7-(4-cyanophenyl)-3-oxoisoindolin-4-yl)benzamide] the figure was greater than 20000 nM; with `Cn1cncc1-c1ccc(NC(=O)c2ccccc2)c2c1CNC2=O` [Example 56, N-(7-(1-methyl-1H-imidazol-5-yl)-3-oxoisoindolin-4-yl) benzamide], 2210 nM; with `Cc1ccccc1Nc1ccc(NC(=O)c2ccccc2)c2c1CNC2=O` [Example 411, N-(3-oxo-7-(o-tolylamino)isoindolin-4-yl)benzamide], greater than 20000 nM.
With `O=C(Nc1ccc(Nc2ccccc2)c2c1C(=O)NC2)c1ccc(F)cc1` [Example 408, 4-Fluoro-N-(3-oxo-7-(phenylamino)isoindolin-4-yl)benzamide] the figure was 280 nM.
For the compound `Cc1nc2cccc(-c3ccc(NC(=O)c4ccc(NCCN5CCCC5)cc4)c4c3CNC4=O)c2o1` [Example 377, N-(7-(2-methylbenzo[d]oxazol-7-yl)-3-oxoisoindolin-4-yl)-4-((2-(pyrrolidin-1-yl)ethyl)amino)benzamide], the IC50 is 360 nM.
In the case of `COc1cccc(-c2ccc(NC(=O)c3cccs3)c3c2CNC3=O)c1OC` [Example 136, N-(7-(2,3-dimethoxyphenyl)-3-oxoisoindolin-4-yl)thiophene-2-carboxamide] it was 68 nM; in that of `O=C(Nc1ccc(-c2ccccc2C(F)(F)F)c2c1C(=O)NC2)c1ccccc1` [Example 114, N-(3-oxo-7-(2-(trifluoromethyl)phenyl)isoindolin-4-yl) benzamide], greater than 20000 nM.
With `O=C(Nc1ccc(Nc2ccccc2)c2c1C(=O)NC2)c1cccc(F)c1` [Example 421, 3-Fluoro-N-(3-oxo-7-(phenylamino)isoindolin-4-yl)benzamide] the figure was 820 nM; with `Cn1cc(-c2ccc(NC(=O)c3ccccc3)c3c2CNC3=O)cn1` [Example 57, N-(7-(1-methyl-1H-pyrazol-4-yl)-3-oxoisoindolin-4-yl) benzamide], 2170 nM; with `COc1ccc(-c2ccc(NC(=O)c3ccccc3)c3c2CNC3=O)cc1` [Example 118, N-(7-(4-methoxyphenyl)-3-oxoisoindolin-4-yl)benzamide], greater than 20000 nM.
For `O=C(Nc1ccc(-c2ccco2)c2c1C(=O)NC2)c1ccc(NCCCN2CCCC2)cc1` [Example 339, N-(7-(furan-2-yl)-3-oxoisoindolin-4-yl)-4-((3-(pyrrolidin-1-yl)propyl)amino)benzamide], the IC50 came out at 310 nM.
In the case of `COc1ccccc1-c1ccc(NC(=O)c2ccc(NCCN3CCOCC3)cc2)c2c1CNC2=O` [Example 326], the IC50 worked out at 93 nM.
Regarding `O=C(Nc1ccc(-c2ccccc2Cl)c2c1C(=O)NC2)c1ccccc1` [Example 174, N-(7-(2-chlorophenyl)-3-oxoisoindolin-4-yl)benzamide], the IC50 is greater than 20000 nM.
